Measured values from patent US10597388B2, “Pyridazinone herbicides” (FMC CORPORATION, priority 2014, dated 2020).

Assays:
Assay type in all cases: in vivo
[1] = test system: ducksalad (Heteranthera limosa); assay: Test B flooded paddy test; settings: 250 g ai/ha, Flood; visual rating on scale of 0 to 100 where 0 is no effect and 100 is complete control; 13 to 15 d after treatment
Summary of the method: (§1)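 Plants at the 2-leaf stage were flooded to 3 cm above soil, and test compounds were applied directly into the paddy water, which was held at that depth throughout. After 13 to 15 d in a greenhouse, injury was rated visually against untreated controls on a 0–100 scale (0 no effect, 100 complete control).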

rice (Oryza sativa) = assay: Test B flooded paddy test; settings: 250 g ai/ha, Flood; visual rating on scale of 0 to 100 where 0 is no effect and 100 is complete control; 13 to 15 d after treatment
Summary of the method: as §1

[2] = test system: sedge, umbrella (small-flower umbrella sedge, Cyperus difformis); assay: Test B flooded paddy test; settings: 250 g ai/ha, Flood; visual rating on scale of 0 to 100 where 0 is no effect and 100 is complete control; 13 to 15 d after treatment
Summary of the method: as §1

[3] = test system: barnyardgrass (Echinochloa crus-galli); assay: Test B flooded paddy test; settings: 250 g ai/ha, Flood; visual rating on scale of 0 to 100 where 0 is no effect and 100 is complete control; 13 to 15 d after treatment
Summary of the method: as §1

[4] = test system: galium (catchweed bedstraw, Galium aparine); assay: Test A greenhouse herbicide test, postemergence; settings: for Plant response rating, Galium: 125 g ai/ha; for Galium plant response rating: 500 g ai/ha, 0 to 100 scale, 0 is no effect, 100 is complete control
Summary of the method: (§2)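 Plants grown in loam soil/sand blend pots were treated postemergence at 2 to 10 cm height, one- to two-leaf stage, with formulated test chemicals. After approximately 10 d in a greenhouse, injury was rated visually against untreated controls on a 0 to 100 scale (0 no effect, 100 complete control).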

[5] = test system: blackgrass (Alopecurus myosuroides); assay: Test A greenhouse herbicide test, postemergence; settings: for Plant response rating, Blackgrass: 125 g ai/ha; for Blackgrass plant response rating: 500 g ai/ha, 0 to 100 scale, 0 is no effect, 100 is complete control
Summary of the method: as §2

kochia (Kochia scoparia) = assay: Test C greenhouse herbicide test, postemergence
Summary of the method: (§3)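 Visual injury scores (0–100, where 100 means complete control) were assigned 13 to 15 d after postemergence application, by comparison with untreated plants. Treated seedlings stood 2 to 18 cm tall, at the 1- to 4-leaf stage.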

[6] = test system: oat, wild (wild oat, Avena fatua); assay: Test C greenhouse herbicide test, postemergence
Summary of the method: as §3

[7] = test system: chickweed (common chickweed, Stellaria media); assay: Test C greenhouse herbicide test, postemergence
Summary of the method: as §3

corn (Zea mays) = assay: Test A greenhouse herbicide test, pre- and postemergence; settings: Postemergence; for Plant response rating, Corn: 125 g ai/ha; for Corn plant response rating: 500 g ai/ha, 0 to 100 scale, 0 is no effect, 100 is complete control
Summary of the method: (§4)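 Seeds sown in loam–sand blend got a preemergence directed soil spray of compound in non-phytotoxic solvent with surfactant. Postemergence treatment was given at 2–10 cm, one- to two-leaf stage. After ~10 d in greenhouse, injury was rated visually vs untreated controls, 0 (no effect) to 100 (complete control).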

[8] = test system: ryegrass, Italian (Italian ryegrass, Lolium multiflorum); assay: as above
Summary of the method: as §4

[9] = test system: barnyardgrass (Echinochloa crus-galli); assay: as above
Summary of the method: as §4

[10] = visual rating after approx. 10 d, 0 to 100 scale (0 no effect, 100 complete control)
[11] = Postemergence, 16 g ai/ha, scale 0 to 100 (0 no effect, 100 complete control)
[12] = Postemergence, 31 g ai/ha, 0 to 100 scale (0 no effect, 100 complete control)
[13] = postemergence, 62 g ai/ha, scale 0 to 100, 0 no effect, 100 complete control
[14] = Postemergence, 8 g ai/ha, scale 0 to 100 (0 no effect, 100 complete control)
[15] = Postemergence, 125 g ai/ha, 0 to 100 scale where 0 is no effect and 100 is complete control
[16] = Postemergence, 500 g ai/ha, 0 to 100 scale, 0 is no effect, 100 is complete control
[17] = Preemergence, 125 g ai/ha, 0 to 100 scale where 0 is no effect and 100 is complete control
[18] = Preemergence, 500 g ai/ha, 0 to 100 scale, 0 no effect, 100 complete control
[19] = 0 to 100 scale where 0 is no effect and 100 is complete control
[20] = Postemergence, 125 g ai/ha, scale 0 to 100, 0 is no effect, 100 is complete control
[21] = Postemergence, 250 g ai/ha, scale 0 to 100, 0 no effect, 100 complete control, 13 to 15 d

Cc1nn(C)c(=O)c(-c2c(C)sc3c(C)cc(Cl)cc23)c1O [Compound 35]
Plant response rating, Ducksalad [1]: 75
Plant response rating, Rice (rice (Oryza sativa)): 0
Plant response rating, Sedge, Umbrella [2]: 65
Plant response rating, Barnyardgrass [3]: 0
Plant response rating, Galium [4, 10]: 100
Galium plant response rating [4]: 100
Plant response rating, Blackgrass [5, 10]: 70
Blackgrass plant response rating [5]: 80
Plant response rating, Kochia (kochia (Kochia scoparia); [11]): 30
Kochia plant response rating (kochia (Kochia scoparia); [12]): 30
Kochia plant response rating (kochia (Kochia scoparia); [13]): 40
Plant response rating, Oat, Wild [6, 14]: 10
Plant response rating, Oat, Wild [6, 11]: 30
Oat, Wild plant response rating [6, 12]: 40
Oat, Wild plant response rating [6, 13]: 60
Plant response rating, Chickweed [7, 14]: 90
Plant response rating, Chickweed [7, 11]: 90
Chickweed plant response rating [7, 12]: 95
Chickweed plant response rating [7, 13]: 95
Plant response rating, Corn (corn (Zea mays); [10]): 0
Corn plant response rating (corn (Zea mays)): 30
Plant response rating, Ryegrass, Italian [8, 15]: 80
Ryegrass, Italian plant response rating [8, 16]: 100
Ryegrass, Italian plant response rating [8, 17]: 90
Plant response rating, Ryegrass, Italian [8, 18]: 90
Plant response rating, Barnyardgrass ([9]; Postemergence, 125 g ai/ha, visual rating after approx. 10 d, 0 to 100 scale (0 no effect, 100 complete control)): 50
Barnyardgrass plant response rating [9, 16]: 90
Barnyardgrass plant response rating [9, 17]: 60
Plant response rating, Barnyardgrass [9, 18]: 90

Cc1nn(C)c(=O)c(-c2ccc(F)c3ccccc23)c1O [Compound 41]
Plant response rating, Ducksalad [1]: 40
Plant response rating, Rice (rice (Oryza sativa)): 0
Plant response rating, Sedge, Umbrella [2]: 40
Plant response rating, Barnyardgrass [3]: 30
Plant response rating, Galium [4, 19]: 80
Galium plant response rating [4]: 100
Plant response rating, Blackgrass [5, 19]: 70
Blackgrass plant response rating [5]: 90
Kochia plant response rating (kochia (Kochia scoparia); [12]): 100
Plant response rating, Kochia (kochia (Kochia scoparia); [20]): 100
Plant response rating, Kochia (kochia (Kochia scoparia); [21]): 100
Kochia plant response rating (kochia (Kochia scoparia); [13]): 100
Oat, Wild plant response rating [6, 12]: 55
Plant response rating, Oat, Wild [6, 20]: 90
Plant response rating, Oat, Wild [6, 21]: 95
Oat, Wild plant response rating [6, 13]: 90
Chickweed plant response rating [7, 12]: 95
Plant response rating, Chickweed [7, 20]: 90
Plant response rating, Chickweed [7, 21]: 100
Chickweed plant response rating [7, 13]: 95
Plant response rating, Corn (corn (Zea mays); [19]): 20
Corn plant response rating (corn (Zea mays)): 70
Plant response rating, Ryegrass, Italian [8, 15]: 100
Ryegrass, Italian plant response rating [8, 16]: 100
Ryegrass, Italian plant response rating [8, 17]: 100
Plant response rating, Ryegrass, Italian [8, 18]: 100
Plant response rating, Barnyardgrass [9, 15]: 30
Barnyardgrass plant response rating [9, 16]: 90
Barnyardgrass plant response rating [9, 17]: 20
Plant response rating, Barnyardgrass [9, 18]: 90

CCc1sc2ccc(C)cc2c1-c1c(O)c(C)nn(C)c1=O [Compound 47]
Plant response rating, Ducksalad [1]: 0
Plant response rating, Rice (rice (Oryza sativa)): 0
Plant response rating, Sedge, Umbrella [2]: 0
Plant response rating, Barnyardgrass [3]: 0
Plant response rating, Galium [4, 19]: 90
Galium plant response rating [4]: 100
Plant response rating, Blackgrass [5, 19]: 60
Blackgrass plant response rating [5]: 70
Kochia plant response rating (kochia (Kochia scoparia); [12]): 75
Plant response rating, Kochia (kochia (Kochia scoparia); [20]): 95
Plant response rating, Kochia (kochia (Kochia scoparia); [21]): 98
Kochia plant response rating (kochia (Kochia scoparia); [13]): 90
Oat, Wild plant response rating [6, 12]: 5
Plant response rating, Oat, Wild [6, 20]: 30
Plant response rating, Oat, Wild [6, 21]: 50
Oat, Wild plant response rating [6, 13]: 10
Chickweed plant response rating [7, 12]: 90
Plant response rating, Chickweed [7, 20]: 98
Plant response rating, Chickweed [7, 21]: 98
Chickweed plant response rating [7, 13]: 90
Plant response rating, Corn (corn (Zea mays); [19]): 0
Corn plant response rating (corn (Zea mays)): 10
Plant response rating, Ryegrass, Italian [8, 15]: 70
Ryegrass, Italian plant response rating [8, 16]: 80
Ryegrass, Italian plant response rating [8, 17]: 60
Plant response rating, Ryegrass, Italian [8, 18]: 90
Plant response rating, Barnyardgrass [9, 15]: 40
Barnyardgrass plant response rating [9, 16]: 80
Barnyardgrass plant response rating [9, 17]: 70
Plant response rating, Barnyardgrass [9, 18]: 90

CCc1sc2c(C)cc(C)cc2c1-c1c(O)c(C)nn(C)c1=O [Compound 57]
Plant response rating, Ducksalad [1]: 0
Plant response rating, Rice (rice (Oryza sativa)): 0
Plant response rating, Sedge, Umbrella [2]: 0
Plant response rating, Barnyardgrass [3]: 0
Plant response rating, Galium [4, 19]: 100
Galium plant response rating [4]: 100
Plant response rating, Blackgrass [5, 19]: 30
Blackgrass plant response rating [5]: 60
Kochia plant response rating (kochia (Kochia scoparia); [12]): 50
Plant response rating, Kochia (kochia (Kochia scoparia); [20]): 70
Plant response rating, Kochia (kochia (Kochia scoparia); [21]): 95
Kochia plant response rating (kochia (Kochia scoparia); [13]): 65
Oat, Wild plant response rating [6, 12]: 20
Plant response rating, Oat, Wild [6, 20]: 45
Plant response rating, Oat, Wild [6, 21]: 60
Oat, Wild plant response rating [6, 13]: 35
Chickweed plant response rating [7, 12]: 90
Plant response rating, Chickweed [7, 20]: 95
Plant response rating, Chickweed [7, 21]: 100
Chickweed plant response rating [7, 13]: 95
Plant response rating, Corn (corn (Zea mays); [19]): 20
Corn plant response rating (corn (Zea mays)): 30
Plant response rating, Ryegrass, Italian [8, 15]: 70
Ryegrass, Italian plant response rating [8, 16]: 90
Ryegrass, Italian plant response rating [8, 17]: 90
Plant response rating, Ryegrass, Italian [8, 18]: 100
Plant response rating, Barnyardgrass [9, 15]: 90
Barnyardgrass plant response rating [9, 16]: 100
Barnyardgrass plant response rating [9, 17]: 100
Plant response rating, Barnyardgrass [9, 18]: 100

Cc1ccc2sc(C)c(-c3c(OC(=O)OC(C)C)c(C)nn(C)c3=O)c2c1 [Compound 66]
Plant response rating, Ducksalad [1]: 0
Plant response rating, Rice (rice (Oryza sativa)): 0
Plant response rating, Sedge, Umbrella [2]: 0
Plant response rating, Barnyardgrass [3]: 0
Plant response rating, Galium [4, 19]: 90
Galium plant response rating [4]: 90
Plant response rating, Blackgrass [5, 19]: 60
Blackgrass plant response rating [5]: 80
Kochia plant response rating (kochia (Kochia scoparia); [12]): 90
Plant response rating, Kochia (kochia (Kochia scoparia); [20]): 90
Plant response rating, Kochia (kochia (Kochia scoparia); [21]): 98
Kochia plant response rating (kochia (Kochia scoparia); [13]): 90
Oat, Wild plant response rating [6, 12]: 55
Plant response rating, Oat, Wild [6, 20]: 90
Plant response rating, Oat, Wild [6, 21]: 90
Oat, Wild plant response rating [6, 13]: 80
Chickweed plant response rating [7, 12]: 90
Plant response rating, Chickweed [7, 20]: 95
Plant response rating, Chickweed [7, 21]: 95
Chickweed plant response rating [7, 13]: 95
Plant response rating, Corn (corn (Zea mays); [19]): 0
Corn plant response rating (corn (Zea mays)): 0
Plant response rating, Ryegrass, Italian [8, 15]: 90
Ryegrass, Italian plant response rating [8, 16]: 100
Ryegrass, Italian plant response rating [8, 17]: 90
Plant response rating, Ryegrass, Italian [8, 18]: 100
Plant response rating, Barnyardgrass [9, 15]: 20
Barnyardgrass plant response rating [9, 16]: 90
Barnyardgrass plant response rating [9, 17]: 20
Plant response rating, Barnyardgrass [9, 18]: 70

Cc1ccc2ccccc2c1-c1c(OC(=O)OC(C)C)c(C)nn(C)c1=O [Compound 72]
Plant response rating, Ducksalad [1]: 0
Plant response rating, Rice (rice (Oryza sativa)): 0
Plant response rating, Sedge, Umbrella [2]: 0
Plant response rating, Barnyardgrass [3]: 0
Plant response rating, Galium [4, 19]: 90
Galium plant response rating [4]: 100
Plant response rating, Blackgrass [5, 19]: 70
Blackgrass plant response rating [5]: 90
Kochia plant response rating (kochia (Kochia scoparia); [12]): 60
Plant response rating, Kochia (kochia (Kochia scoparia); [20]): 90
Plant response rating, Kochia (kochia (Kochia scoparia); [21]): 90
Kochia plant response rating (kochia (Kochia scoparia); [13]): 85
Oat, Wild plant response rating [6, 12]: 85
Plant response rating, Oat, Wild [6, 20]: 90
Plant response rating, Oat, Wild [6, 21]: 95
Oat, Wild plant response rating [6, 13]: 95
Chickweed plant response rating [7, 12]: 90
Plant response rating, Chickweed [7, 20]: 90
Plant response rating, Chickweed [7, 21]: 90
Chickweed plant response rating [7, 13]: 90
Plant response rating, Corn (corn (Zea mays); [19]): 20
Corn plant response rating (corn (Zea mays)): 40
Plant response rating, Ryegrass, Italian [8, 15]: 100
Ryegrass, Italian plant response rating [8, 16]: 100
Ryegrass, Italian plant response rating [8, 17]: 100
Plant response rating, Ryegrass, Italian ([8]; Preemergence, 500 g ai/ha, 0 to 100 scale where 0 is no effect and 100 is complete control): 100
Plant response rating, Barnyardgrass [9, 15]: 20
Barnyardgrass plant response rating [9, 16]: 60
Barnyardgrass plant response rating [9, 17]: 10
Plant response rating, Barnyardgrass [9, 18]: 100
